Drawing on patent US10112939B2, “Tied-back benzamide derivatives as potent rock inhibitors” (Bristol-Myers Squibb Company, priority 2014, dated 2018), this text covers IC50 for 39 molecules.

For this experiment, the target named is ROCK2 (Homo sapiens (Human), UniProt O75116). Kind of experiment: ROCK assay (peptide substrate phosphorylation, LABCHIP 3000 Reader). The experiment is classed as biochemical. The following applies: 5 μM ATP, 1.5 μM peptide substrate. Here is the method:
Compounds were dissolved in DMSO so that the final concentration of DMSO was <2%, and the reaction was initiated with Rho kinase variants. After incubation, the reaction was terminated by the addition of EDTA and the phosphorylated and non-phosphorylated peptides separated using a LABCHIP® 3000 Reader (Caliper Life Sciences). […] Compounds were tested in dose-response format, and the inhibition of kinase activity was calculated at each concentration of compound.

Chain of ROCK2 (O75116 whole entry, species assumed): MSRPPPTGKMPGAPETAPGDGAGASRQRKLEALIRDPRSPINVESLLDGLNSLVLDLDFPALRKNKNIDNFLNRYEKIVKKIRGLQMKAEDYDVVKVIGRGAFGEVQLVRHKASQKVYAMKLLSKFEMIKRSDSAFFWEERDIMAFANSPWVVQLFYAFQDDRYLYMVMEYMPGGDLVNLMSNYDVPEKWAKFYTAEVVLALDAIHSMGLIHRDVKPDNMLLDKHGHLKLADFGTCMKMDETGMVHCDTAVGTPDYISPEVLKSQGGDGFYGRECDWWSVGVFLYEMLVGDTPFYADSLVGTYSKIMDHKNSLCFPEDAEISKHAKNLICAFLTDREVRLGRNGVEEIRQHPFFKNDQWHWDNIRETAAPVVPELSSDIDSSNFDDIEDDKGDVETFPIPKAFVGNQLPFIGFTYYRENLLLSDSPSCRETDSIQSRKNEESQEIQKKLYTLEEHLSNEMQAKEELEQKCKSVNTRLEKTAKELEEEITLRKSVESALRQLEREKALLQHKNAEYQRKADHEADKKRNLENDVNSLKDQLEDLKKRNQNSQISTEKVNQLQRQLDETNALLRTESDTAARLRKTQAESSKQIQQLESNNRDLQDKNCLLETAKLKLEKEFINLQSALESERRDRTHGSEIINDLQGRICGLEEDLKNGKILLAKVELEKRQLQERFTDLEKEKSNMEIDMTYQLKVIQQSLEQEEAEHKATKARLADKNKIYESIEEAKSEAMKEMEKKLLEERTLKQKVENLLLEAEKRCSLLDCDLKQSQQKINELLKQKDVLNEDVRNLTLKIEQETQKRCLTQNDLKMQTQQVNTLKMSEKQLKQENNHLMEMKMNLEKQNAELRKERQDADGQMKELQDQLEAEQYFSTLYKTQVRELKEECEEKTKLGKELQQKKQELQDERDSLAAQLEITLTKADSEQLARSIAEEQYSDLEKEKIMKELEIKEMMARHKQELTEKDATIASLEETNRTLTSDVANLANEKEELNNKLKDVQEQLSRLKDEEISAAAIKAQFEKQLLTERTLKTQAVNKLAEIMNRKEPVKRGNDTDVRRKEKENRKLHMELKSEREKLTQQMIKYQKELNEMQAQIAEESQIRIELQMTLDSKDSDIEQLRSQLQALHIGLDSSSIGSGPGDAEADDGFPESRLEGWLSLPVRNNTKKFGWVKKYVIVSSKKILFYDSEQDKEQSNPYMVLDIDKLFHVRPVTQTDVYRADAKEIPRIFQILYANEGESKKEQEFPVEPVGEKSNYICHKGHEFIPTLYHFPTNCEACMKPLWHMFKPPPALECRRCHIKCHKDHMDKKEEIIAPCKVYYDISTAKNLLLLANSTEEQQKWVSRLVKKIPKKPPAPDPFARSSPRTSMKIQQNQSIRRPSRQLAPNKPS

Consider `COc1cc(C(=O)N[C@@H]2CNC[C@H]2c2ccccc2)ccc1-c1cn[nH]c1` (racemic) [Example 70, trans-(±)-3-Methoxy-N-(4-phenylpyrrolidin-3-yl)-4-(1H-pyrazol-4-yl)benzamide], for which the IC50 – broadly, the concentration that gives 50% inhibition – came out at 1.28 nM.

Molecule `COc1cc(C(=O)N2CCC(c3ccccc3)C2)ccc1-c1cn[nH]c1` (stereo not drawn) [Example 2, 4-[2-methoxy-4-(3-phenyl-pyrrolidine-1-carbonyl)phenyl]-1H-pyrazole] came in with an IC50 of 355 nM. In the case of `COc1cc(C(=O)N2CCC[C@H]2CO)ccc1-c1cn[nH]c1` [Example 3, [(2S)-1-[3-methoxy-4-(1H-pyrazol-4-yl)benzoyl]pyrrolidin-2-yl]methanol], the IC50 was 1340 nM. For `COc1cccc(C2CCCN2C(=O)c2ccc(-c3cn[nH]c3)c(OC)c2)c1` (stereo not drawn) [Example 4, 4-{2-methoxy-4-[2-(3-methoxyphenyl)pyrrolidine-1-carbonyl]phenyl}-1H-pyrazole], the IC50 came to 31.8 nM. As for `COc1cc(C(=O)NC2CCc3ccccc32)ccc1-c1cn[nH]c1` (stereo not drawn) [Example 5, N-(2,3-dihydro-1H-inden-1-yl)-3-methoxy-4-(1H-pyrazol-4-yl)benzamide], the figure is 32.2 nM; as for `COc1cc(C(=O)N2CCCC2c2ccccc2OC)ccc1-c1cn[nH]c1` (stereo not drawn) [Example 6, 4-{2-methoxy-4-[2-(2-methoxyphenyl)pyrrolidine-1-carbonyl]phenyl}-1H-pyrazole], 511 nM.

Take `COc1cc(C(=O)N2CCCC(c3ccccc3)C2)ccc1-c1cn[nH]c1` (stereo not drawn) [Example 7, 1-[3-methoxy-4-(1H-pyrazol-4-yl)benzoyl]-3-phenylpiperidine]: half-maximal inhibition (IC50) required 1430 nM.

The molecule `COc1cc(C(=O)N2CCCCC2c2ccccc2F)ccc1-c1cn[nH]c1` (stereo not drawn) [Example 8, 2-(2-fluorophenyl)-1-[3-methoxy-4-(1H-pyrazol-4-yl)benzoyl] piperidine] came in with an IC50 of 85.8 nM. Molecule `COc1cccc(C2CCCCN2C(=O)c2ccc(-c3cn[nH]c3)c(OC)c2)c1` (stereo not drawn) [Example 9, 1-[3-methoxy-4-(1H-pyrazol-4-yl)benzoyl]-2-(3-methoxy-phenyl) piperidine] showed an IC50 of 673 nM. As for `COc1cc(C(=O)N2CCCC2c2ccc(Cl)cc2)ccc1-c1cn[nH]c1` (stereo not drawn) [Example 10, 4-{4-[2-(4-chlorophenyl)pyrrolidine-1-carbonyl]-2-methoxyphenyl}-1H-pyrazole], the figure is 114 nM; as for `COc1cccc(C2CCCN2C(=O)c2ccc(-c3cn[nH]c3)c(OC)c2)c1` (stereo not drawn) [Example 11, 4-{2-methoxy-4-[2-(3-methoxyphenyl)pyrrolidine-1-carbonyl]phenyl}-1H-pyrazole], 1630 nM. As for `COc1cccc(C2CCCN2C(=O)c2ccc(-c3cn[nH]c3)c(OC)c2)c1` (stereo not drawn) [Example 12, 4-{2-methoxy-4-[2-(3-methoxyphenyl)pyrrolidine-1-carbonyl]phenyl}-1H-pyrazole], the figure is 12.6 nM; as for `COc1cc(C(=O)N2CCc3ccccc32)ccc1-c1cn[nH]c1` [Example 13, 1-[3-methoxy-4-(1H-pyrazol-4-yl)benzoyl]-2,3-dihydro-1H-indole], 800 nM. As for `COc1cc(C(=O)N2CCCC2Cc2ccccc2)ccc1-c1cn[nH]c1` (stereo not drawn) [Example 14, 4-[4(2-benzyl-pyrrolidine-1-carbonyl)-2-methoxy-phenyl]-1H-pyrazole], the IC50 came to 183 nM. On to `COc1cc(C(=O)N2CCCC2c2cccc(Br)c2)ccc1-c1cn[nH]c1` (stereo not drawn) [Example 15, 4-{4-[2-(3-bromophenyl)pyrrolidine-1-carbonyl]-2-methoxyphenyl}-1H-pyrazole], for which the IC50 stood at 31 nM.

On to `COc1cc(C(=O)N2CCCC2c2cccc(S(N)(=O)=O)c2)ccc1-c1cn[nH]c1` (stereo not drawn) [Example 16, 3-{1-[3-methoxy-4-(1H-pyrazol-4-yl)benzoyl]pyrrolidin-2-yl}benzene-1-sulfonamide], for which 3.57 nM corresponded to half-maximal inhibition (IC50). `COc1cc(C(=O)N2CCCC2c2cccc(S(N)(=O)=O)c2)ccc1-c1cn[nH]c1` (stereo not drawn) [Example 17, 3-{1-[3-methoxy-4-(1H-pyrazol-4-yl)benzoyl]pyrrolidin-2-yl}benzene-1-sulfonamide] registered an IC50 of 1280 nM. For `COc1cc(C(=O)N2CCCC2c2cccc(S(N)(=O)=O)c2)ccc1-c1cn[nH]c1` (stereo not drawn) [Example 18, 3-{1-[3-methoxy-4-(1H-pyrazol-4-yl)benzoyl]pyrrolidin-2-yl} benzene-1-sulfonamide], the IC50 came out at 2.79 nM.

For `COc1cc(C(=O)N2CCCC2c2ccc(F)cc2)ccc1-c1cn[nH]c1` (stereo not drawn) [Example 19, 4-{4-[2-(4-fluorophenyl)pyrrolidine-1-carbonyl]-2-methoxyphenyl}-1H-pyrazole], the IC50 came to 41.4 nM. In the case of `COc1cc(C(=O)N2CCCC2c2ccccc2F)ccc1-c1cn[nH]c1` (stereo not drawn) [Example 20, 4-{4-[2-(2-fluorophenyl)pyrrolidine-1-carbonyl]-2-methoxyphenyl}-1H-pyrazole], the IC50 amounted to 14.7 nM. `COc1cc(C(=O)N2CCCC2c2cccc(O)c2)ccc1-c1cn[nH]c1` (stereo not drawn) [Example 21, 3-{1-[3-methoxy-4-(1H-pyrazol-4-yl)benzoyl]pyrrolidin-2-yl}phenol] displayed an IC50 of 2.74 nM. As for `COc1cc(C(=O)N2CCCC2c2ccc(C(F)(F)F)cc2)ccc1-c1cn[nH]c1` (stereo not drawn) [Example 22, 4-(2-methoxy-4-{2-[4-(trifluoromethyl)phenyl]pyrrolidine-1-carbonyl}phenyl)-1H-pyrazole], the figure is 125 nM; as for `COc1cc(C(=O)N2CCCC2c2ccc(C)cc2)ccc1-c1cn[nH]c1` (stereo not drawn) [Example 23, 4-{2-methoxy-4-[2-(4-methyl-phenyl)pyrrolidine-1-carbonyl]phenyl}-1H-pyrazole], 215 nM. As for `COc1cc(C(=O)N2CCC[C@@H]2C(=O)OC(C)(C)C)ccc1-c1cn[nH]c1` [Example 24, tert-butyl (2R)-1-[3-methoxy-4-(1H-pyrazol-4-yl)benzoyl] pyrrolidine-2-carboxylate], the figure is 1100 nM. In turn, `COc1ccc(C2CCCN2C(=O)c2ccc(-c3cn[nH]c3)c(OC)c2)cc1` (stereo not drawn) [Example 25, 4-{2-methoxy-4-[2-(4-methoxyphenyl)pyrrolidine-1-carbonyl]phenyl}-1H-pyrazole] displayed an IC50 of 331 nM. As for `COc1cc(C(=O)N2CCCC2c2ccccc2)ccc1-c1cn[nH]c1` (stereo not drawn) [Example 26, 4-[2-methoxy-4-(2-phenyl-pyrrolidine-1-carbonyl)phenyl]-1H-pyrazole], the IC50 came to 50.5 nM. In the case of `COc1cc(C(=O)N2CCCC2c2cccc(C)c2)ccc1-c1cn[nH]c1` (stereo not drawn) [Example 27, 4-{2-methoxy-4-[2-(3-methyl-phenyl)pyrrolidine-1-carbonyl]phenyl}-1H-pyrazole], the IC50 worked out at 61.4 nM. Take `COc1cc(C(=O)N2CCCC2c2ccccc2Cl)ccc1-c1cn[nH]c1` (stereo not drawn) [Example 28, 4-{4-[2-(2-chlorophenyl)pyrrolidine-1-carbonyl]-2-methoxyphenyl}-1H-pyrazole]: 15.8 nM corresponded to half-maximal inhibition (IC50).

In turn, `COc1cc(C(=O)N2CCCC2c2ccc3ccccc3c2)ccc1-c1cn[nH]c1` (stereo not drawn) [Example 29, 4-{2-methoxy-4-[2-(naphthalen-2-yl)pyrrolidine-1-carbonyl]phenyl}-1H-pyrazole] displayed an IC50 of 68.3 nM. To `COc1cc(C(=O)N2CCCC2c2ccc3c(c2)OCO3)ccc1-c1cn[nH]c1` (stereo not drawn) [Example 30, 4-{4-[2-(2H-1,3-benzodioxol-5-yl)pyrrolidine-1-carbonyl]-2-methoxyphenyl}-1H-pyrazole] belongs 75.3 nM. For the molecule `COc1cc(C(=O)N2CCC[C@@H]2c2cccc(S(C)(=O)=O)c2)ccc1-c1cn[nH]c1` [Example 31, 4-{4-[(2R)-2-(3-Methanesulfonylphenyl)pyrrolidine-1-carbonyl]-2-methoxyphenyl}-1H-pyrazole], the midpoint of inhibition, the IC50, lay at 11.6 nM. As for `COC(=O)c1cccc([C@H]2CCCN2C(=O)c2ccc(-c3cn[nH]c3)c(OC)c2)c1` [Example 32, Methyl 3-[(2R)-1-[3-methoxy-4-(1H-pyrazol-4-yl)benzoyl]pyrrolidin-2-yl]benzoate], the figure is 5.83 nM.

`CCNC(=O)c1cccc(C2CCCN2C(=O)c2ccc(-c3cn[nH]c3)c(OC)c2)c1` (stereo not drawn) [Example 35, N-Ethyl-3-(1-(3-methoxy-4-(1H-pyrazol-4-yl)benzoyl)pyrrolidin-2-yl)benzamide] came in with a half-inhibitory concentration (IC50) of 4.89 nM. `COc1cc(C(=O)N2CCC[C@@H]2c2cccc(C(=O)NCC(C)(C)O)c2)ccc1-c1cn[nH]c1` [Example 39, N-(2-hydroxy-2-methylpropyl)-3-[(2R)-1-[3-methoxy-4-(1H-pyrazol-4-yl)benzoyl]pyrrolidin-2-yl]benzamide] showed an IC50 of 4.52 nM. Consider `COc1cc(C(=O)N2CCC[C@@H]2c2cccc(C(=O)N(C)C)c2)ccc1-c1cn[nH]c1` [Example 40, 3-[(2R)-1-[3-methoxy-4-(1H-pyrazol-4-yl)benzoyl]pyrrolidin-2-yl]-N,N-dimethylbenzamide], for which the IC50 amounted to 725 nM. As for `COc1cc(C(=O)N2CCC[C@@H]2c2cccc(C(=O)NC3CCS(=O)(=O)C3)c2)ccc1-c1cn[nH]c1` (stereo partly drawn) [Example 41, N-(1,1-dioxo-1λ^6-thiolan-3-yl)-3-[(2R)-1-[3-methoxy-4-(1H-pyrazol-4-yl)benzoyl]pyrrolidin-2-yl]benzamide], the figure is 5.53 nM. As for `COc1cc(C(=O)N2CCC[C@@H]2c2cccc(C(=O)NC3CC3)c2)ccc1-c1cn[nH]c1` [Example 42, N-cyclopropyl-3-[(2R)-1-[3-methoxy-4-(1H-pyrazol-4-yl)benzoyl]pyrrolidin-2-yl]benzamide], the figure is 4.59 nM; as for `COC(=O)c1cccc([C@H]2CC(OC(C)=O)CN2C(=O)c2ccc(-c3cn[nH]c3)c(OC)c2)c1` (stereo partly drawn) [Example 43, Methyl 3-[(2R)-4-(acetyloxy)-1-[3-methoxy-4-(1H-pyrazol-4-yl)benzoyl]pyrrolidin-2-yl]benzoate], 54.4 nM; as for `COc1cc(C(=O)N2CC(O)C[C@@H]2c2cccc(C(=O)O)c2)ccc1-c1cn[nH]c1` (stereo partly drawn) [Example 44, 3-[(2R)-4-Hydroxy-1-[3-methoxy-4-(1H-pyrazol-4-yl)benzoyl]pyrrolidin-2-yl]benzoic acid], 49.7 nM.
